{"source": "patent US20250012802A1", "about": "“SYSTEMS AND METHODS FOR PREDICTING RESPONSE TO ORAL MINOXIDIL FOR THE TREATMENT OF ANDROGENETIC ALOPECIA” (Follea International, priority 2023, published 2025)", "tested_on": "androgenetic alopecia", "assay": "clinical response to oral minoxidil for androgenetic alopecia", "assay_type": "in vivo, human", "parameters": "Response: scale not given here", "details": "for subjects who responded to oral minoxidil: 5 mg men and 1.25 mg women", "text": "Clinical trials with minoxidil for the treatment of androgenetic alopecia have shown statistically significant results for maintenance and growth of hair. […] As described herein, the assessment of hair re-growth is based on one or more of the following parameters: patient self assessment, physician assessment using a standardized scale, global photography assessment, hair diameter measurement, average hair length measurement, average hair diameter measurement, and hair weight measurements. The current inventions provide a method of using biochemical variations in minoxidil sulfotransferase activity as a drug response marker for oral and/or topical minoxidil treatment of androgenetic alopecia. Based on the minoxidil sulfotransferase activity level, the method disclosed herein allows a physician or the patient to select the appropriate treatment and dosage thereof for the treatment of androgenetic alopecia.\nIn one embodiment, the test is conducted by placing a hair follicle in an assay. The hair follicle may be collected prior to minoxidil therapy, or after start of minoxidil therapy. The follicle is placed in a solution containing minoxidil. The assay is then conducted as described above, and is examined to determine whether there is a SULT1A1 response. The results are then used as a predictor for patients who will respond well to minoxidil, and who will respond better to oral minoxidil versus topical application of minoxidil. […] The first column is optical density resulting from the colorimetric testing. The second column indicates response.\nA total of 123 subjects recruited. Overall among subjects with OD<0.37 85% responded to oral minoxidil (5 mg men and 1.25 mg women). Overall among subjects with OD>0.37 43% responded to oral minoxidil (5 mg men and 1.25 mg women). This was statistically significant p=0.0088 (Fischer Exact Test). In this cohort, oral minoxidil only worked on 42% of women and 73% of men.", "note": "Several values for one entry are separate records, joined by “and”; a condition that tells them apart may be missing. Equal values may be shown once."}
{"smiles": "Nc1cc(N2CCCCC2)nc(N)[n+]1[O-]", "note": "[minoxidil]", "values": [{"measurement": "share of cohort on whom oral minoxidil worked", "setting": "men", "result": 73, "unit": "%"}, {"measurement": "Response", "setting": "response of the individual patient with the OD of the same line, 0/1 not defined in the patent", "result": "1 (15×) and 0 (11×)"}, {"measurement": "subjects who responded to oral minoxidil", "setting": "subjects with OD<0.37", "result": 85, "unit": "%"}, {"measurement": "subjects who responded to oral minoxidil", "setting": "subjects with OD>0.37", "result": 43, "unit": "%"}, {"measurement": "share of cohort on whom oral minoxidil worked", "setting": "women", "result": 42, "unit": "%"}]}
